We go through 15 molecules from patent publication US20100278835A1, “NOVEL COMPOUNDS 660” (ASTRAZENECA UK LIMITED, priority 2009, published 2010).

For one test, the system named is RSV RSS strain. As to the kind of experiment: ELISA assay of antiviral activity against RSV (reduction in RSV protein expression). The settings on record: Hep-2 cells infected with RSV RSS strain, multiplicity of infection 0.02, 3 days; concentration required to inhibit RSV protein expression by 50%. Format: cell-based. On the procedure:
The antiviral activity of these compounds against RSV was determined in an ELISA assay. […] ELISA assays were set up by seeding 96-well plates with 5×10^3 Hep-2 cells per well in 100 μl DMEM containing 10% FBS for 24 h. Compound dilutions were prepared in 0.5% DMSO and 50 μl/well was added to the assay plates, the plates were incubated at 37° C. in 5% CO2 for one hour. Cells were infected with 50 μl/well RSV RSS strain at a multiplicity of infection of 0.02 and were incubated at 37° C. in 5% CO2 for 3 days. Cells were then fixed and permeabilised with 75%/25% methanol acetone and blocked with 2% Marvel™, 0.05% Tween for one hour. Plates were then incubated in the presence of a 1:4000 dilution of […] polyclonal antibody (Millipore, AB1128) followed by a 1:1000 dilution of rabbit anti-goat, horseradish peroxidase (DAKO, PO449) labelled secondary antibody. The plates were developed with O-phenylenediamine in the presence of hydrogen peroxide. The antiviral activity of the compounds is presented as an IC50, the concentration required to inhibit RSV protein expression by 50%.
What is called IC50 is the concentration at which inhibition is half-maximal. Read a high IC50 as weaker potency in that assay. The molecule `CC(C)CCn1c(CN2C(=O)N(C3CC3)C(C)c3ccccc32)nc2cc(C(=N)N)ccc21` (stereo not drawn) [Example 36, 2-[(3-cyclopropyl-4-methyl-2-oxo-4H-quinazolin-l-yl)methyl]-1-isopentyl-benzimidazole-5-carboxamidine] gave an IC50 of 8.4 nM.
“2-[(3-cyclopropyl-2-oxo-4H-quinazolin-1-yl)methyl]-N′-hydroxy-1-isopentyl-benzimidazole-5-carboxamidine [Example 38]” returned a half-maximal inhibitory concentration (IC50) of 88.9 nM.
As to “1-[[5-[(3-aminopropylamino)methyl]-1-isopentyl-benzimidazol-2-yl]methyl]-3-cyclopropyl-4H-quinazolin-2-one [Example 32]”, the IC50 is 32 nM. This IC50 lies about 2.8-fold lower than the previous one.
The molecule `CC(C)CCn1c(CN2C(=O)N(CCCN3CCCC3)Cc3ccccc32)nc2cc(CN)ccc21` [Example 17, 1-[[5-(aminomethyl)-1-isopentyl-benzimidazol-2-yl]methyl]-3-(3-pyrrolidin-1-ylpropyl)-4H-quinazolin-2-one] showed an IC50 of 13.7 nM.
Still for that read-out and setting: then “1-[[5-(aminomethyl)-1-(4-hydroxybutyl)benzimidazol-2-yl]methyl]-3-(cyclohexylmethyl)-4H-quinazolin-2-one [Example 27]”, with 94 nM; and “1-[[5-[(3-aminopropylamino)methyl]-1-isopentyl-benzimidazol-2-yl]methyl]-3-methyl-4H-quinazolin-2-one [Example 31]”, with 23 nM.
The molecule “3-cyclopropyl-1-[(1-isopentylbenzimidazol-2-yl)methyl]-4,4-dimethyl-quinazolin-2-one [Example 4]” showed a concentration for half-maximal inhibition (IC50) of 1420 nM.

The same test, now with this note: human respiratory syncytial virus, 72 h; Hep-2 cells infected with RSV RSS strain, multiplicity of infection 0.02, 3 days; concentration required to inhibit RSV protein expression by 50%.
`CC(C)CCn1c(CN2C(=O)N(C3CC3)Cc3cccnc32)nc2cc(CN)ccc21` [Example 12, 1-[[5-(aminomethyl)-1-isopentyl-benzimidazol-2-yl]methyl]-3-cyclopropyl-4H-pyrido[2,3-d]pyrimidin-2-one] returned a half-inhibitory concentration (IC50) of 53.1 nM.
`CC1c2ccccc2N(Cc2nc3cc(CN)ccc3n2CCCC(F)(F)F)C(=O)N1C1CC1` (stereo not drawn) [Example 29, 1-[[5-(aminomethyl)-1-(4,4,4-trifluorobutyl)benzimidazol-2-yl]methyl]-3-cyclopropyl-4-methyl-4H-quinazolin-2-one] showed a half-inhibitory concentration (IC50) of 3.8 nM.
As to `CC1c2ccccc2N(Cc2nc3cc(C(=N)N)ccc3n2CCCC(F)(F)F)C(=O)N1C1CC1` (stereo not drawn) [Example 42, 2-[(3-cyclopropyl-4-methyl-2-oxo-4H-quinazolin-1-yl)methyl]-1-(4,4,4-trifluorobutyl)benzimidazole-5-carboxamidine], 11.8 nM corresponded to half-maximal inhibition (IC50).
The molecule `CN1Cc2ccccc2N(Cc2nc3cc(CN)ccc3n2CCCCO)C1=O` [Example 24, 1-[[5-(aminomethyl)-1-(4-hydroxybutyl)benzimidazol-2-yl]methyl]-3-methyl-4H-quinazolin-2-one] registered a 50% inhibitory concentration (IC50) of 3.2 nM.
For `CC(C)CCn1c(CN2C(=O)N(C3CC3)Cc3ccccc32)nc2ccccc21` [Example 1], the concentration for half-maximal inhibition (IC50) was 1890 nM.
For the molecule `CCCN1Cc2ccccc2N(Cc2nc3cc(CN)ccc3n2CCC(C)C)C1=O` [Example 6, 1-[[5-(aminomethyl)-1-isopentyl-benzimidazol-2-yl]methyl]-3-propyl-4H-quinazolin-2-one], half-maximal inhibition (IC50) was put at 1.2 nM.
`CC(C)CCn1c(CN2C(=O)N(C3CC3)C(C)c3ccccc32)nc2cc(C(N)=NO)ccc21` (stereo not drawn) [Example 39, 2-[(3-cyclopropyl-4-methyl-2-oxo-4H-quinazolin-1-yl)methyl]-N′-hydroxy-1-isopentyl-benzimidazole-5-carboxamidine] showed a half-maximal inhibitory concentration (IC50) of 400 nM.
For the molecule `CC1(C)c2ccccc2N(Cc2nc3cc(C(=N)N)ccc3n2CCCC(F)(F)F)C(=O)N1C1CC1` [Example 43, 2-[(3-cyclopropyl-4,4-dimethyl-2-oxo-quinazolin-1-yl)methyl]-1-(4,4,4-trifluorobutyl)benzimidazole-5-carboxamidine], the IC50 was found to be 18 nM.
